Experimental data as given in patent US4622337A, “2,2-dimethyl-3-(2-halovinyl)cyclopropane carboxlic acid ester pesticides” (priority 1972, dated 1986).

How the values were obtained:
[1] = test system: houseflies (Musca domestica); test: Relative toxicity to houseflies, topical drop on thorax; assay type: in vivo; settings: for Relative Toxicity, Houseflies: 5-benzyl-3-furylmethyl (1R)-trans-chrysanthemate = 1000, inverse ratio of LD50, topical, female flies
Method: (§1) The toxicity of these new esters was tested by the procedure described in detail in our above mentioned application and the following results were obtained:
(§2) The insecticidal acitivity of the esters of the invention was assessed against houseflies and mustard beetles using the following techniques:
(§3) Female flies were treated on the thorax with a one microliter drop of insecticide dissolved in acetone. Two replicates of 15 flies were used at each dose rate and 6 dose rates were used per compound under test. After treatment, the flies were maintained at a temperature of 20° C.±1° and kill was assessed 24 and 48 hours after treatment. LD50 values were calculated in micrograms of insecticide per fly and relative toxicities were calculated from the inverse ratios of the LD50 values. (see Sawicki et al, Bulletin of the World Health Organization, 35,893, (1966) and Sawicki et al, Entomologia and Exp. Appl. 10, 253, (1967)).
(§4) Relative toxicities were calculated by comparison with 5-benzyl-3-furylmethyl(1R)-trans-chrysanthemate which is one of the most toxic chrysanthemate esters known to houseflies and mustard beetles, its toxicity being about 24 times that of allethrin to houseflies and 65 times that of allethrin to mustard beetles.

[2] = test system: mustard beetles (Phaedon cochleariae Fab); test: Relative toxicity to mustard beetles, topical micro drop; assay type: in vivo; settings: for Relative Toxicity, Mustard Beetles: 5-benzyl-3-furylmethyl (1R)-trans-chrysanthemate = 1000, inverse ratio of LD50, topical, 48 hours
Method: as §1, §2
Acetone solutions of the test compound were applied ventrally to adult mustard beetles using a micro drop applicator. The treated insects were maintained for 48 hours after which time kill is assessed. Two replicates of 40 to 50 mustard beetles were used at each dose level and 3 to 4 dose levels were used for each compound. Again, LD50 values were calculated and relative toxicities were calculated for the inverse ratios of LD50 (see Elliott et al, J. Sci. Food Agric. 20, 561, (1969)).
as §4

[3] = test system: female flies (houseflies); test: Synergisability with Sesamex, 5 micrograms per fly 3 hours before; assay type: in vivo, Musca domestica; settings: for LD50 Active compound (flies pretreated with synergist): 5 micrograms per fly Sesamex 3 hours before; for Approx. synergist factor: Sesamex, 5 micrograms per fly; for LD 50 active compound only: without synergist
Method: The following results were obtained
By repeating the above synergisability test but pretreating flies instead with 5 micrograms per fly of the synergist Sesamex 3 hours before applying the pyrethroid, the following results were obtained: […]

[4] = Mammalian toxicity in mice; settings: mouse, in vivo; oral acute
[5] = Mammalian toxicity in rats; settings: rat, in vivo
[6] = test system: female flies (houseflies); test: Synergisability with sesamex, 2 μg per fly pretreatment; assay type: in vivo, Musca domestica; settings: for LD 50 active compound + synergist: pretreated with 2 μg. per fly sesamex; for Approx. Synergistic factor: sesamex, 2 μg. per fly; for LD 50 active compound only: untreated flies
Method: as §3, with “values.” for “values. (see Sawicki et al, Bulletin of the World Health Organization, 35,893, (1966) and Sawicki et al, Entomologia and Exp. Appl. 10, 253, (1967)).”

[7] = test system: American cockroach, Periplaneta americana L.; test: Toxicity relative to bioresmethrin against American cockroach; assay type: in vivo; settings: for Relative Toxicity (American cockroach): Bioresmethrin = 100
female Musca domestica = test: Topical application of pyrethroids alone and with piperonyl butoxide or Tropital; assay type: in vivo; settings: for LD 50 active compound only: alone; for LD50 Active compound + piperonyl butoxide (1:5): with piperonyl butoxide (1:5)
Text: Topical application of pyrethroids alone and in combination with synergist gave the following LD50 results in micrograms with female Musca domestica: […]

[8] = test system: houseflies (M. domestica); test: Insecticidal activity by spraying in a Kearns and March chamber; assay type: in vivo, Musca domestica; settings: for LD50: compound alone, odourless kerosene spray
Method: The insecticidal activity of DP 870 against houseflies was tested by spraying M. domestica in a Kearns and March chamber with a solution of a compound in odourless kerosene, and LD50 values calculated. The activity of DP 870 synergised with piperonylbutoxide was also measured and the results compared with the LD50 value for compound P21H of Example 18.

[9] = test system: Ephestia kuhniella and Venturia canescens; test: Selective toxicity to Ephestia compared to Venturia (LD50 ratio); assay type: in vivo; settings: for Selectivity (ratio of toxicity to Ephestia compared to Venturia): ratio from relative toxicity (LD50)
Text: Experiments to compare the relative toxicity (LD50) of compound P39E with certain related compounds have been carried out towards both Ephestia kuhniella and Venturia canescens so that the relative toxicity to the two species can be calculated. […]

[10] = test system: Boophilus microplus, Biarra strain; test: Acaricidal activity: inhibition of egg laying of injected engorged female ticks; assay type: in vivo; settings: Rhipicephalus microplus, 336 h, 14 days after injection, read-out: % Inhibition (egg laying ability)
Text: Acaricidal activity has been measured by injecting solutions of test compound P39E into engorged female ticks, Boophilus microplus, Biarra strain and the ability of the female to lay eggs 14 days after injection determined. The results are exposed as a percent of inhibition of egg laying ability compared to untreated control ticks.

Q: For `CC1(C)C(C=C(Cl)Cl)C1C(=O)OC(C#N)c1cccc(Oc2ccccc2)c1` (racemic) [Compound P21P, (αRS)-cyano-3-phenoxybenzyl-(1RS)-cis-trans-3-(2,2-dichlorovinyl)-2,2-dimethyl cyclopropane carboxylate], which “Relative Toxicity, Houseflies” value [1] is on record?
A: The value was 1300.

Q: And the “Relative Toxicity, Mustard Beetles” value [2]?
A: The value was at least 5000.

Q: And the “LD50 Active compound (flies pretreated with synergist)” value [3]?
A: The value was 0.00088 µg.

Q: And the Approx. synergist factor [3]?
A: The Approx. synergist factor was about 8.3.

Q: And the “LD 50 active compound only” value [3]?
A: The value was 0.0073 µg.

Q: For `CC1(C)[C@H](C=C(Cl)Cl)[C@H]1C(=O)OCc1cccc(Oc2ccccc2)c1` (relative stereo), which LD50 [4] is on record?
A: Its LD50 is over 300 mg/kg.

Q: What about the LD50 ([5]; po) of the same compound?
A: Its LD50 is over 300 mg/kg.

Q: For `C#CCc1ccc(COC(=O)[C@@H]2[C@@H](C=C(Cl)Cl)C2(C)C)o1` (relative stereo), which LD50 [4] is on record?
A: Its LD50 is about 300 mg/kg.

Q: And the LD50 ([5]; po)?
A: Its LD50 is 300 mg/kg.

Q: For `CC1(C)[C@H](C=C(Cl)Cl)[C@H]1C(=O)OCc1coc(Cc2ccccc2)c1` (relative stereo), which LD50 [4] is on record?
A: Its LD50 is 100 mg/kg.

Q: For `CC1(C)[C@H](C(=O)OCc2cccc(Oc3ccccc3)c2)[C@@H]1C=C(Cl)Cl` (relative stereo) [Compound P21G], which “Relative Toxicity, Houseflies” value [1] is on record?
A: The value was 680.

Q: And the “Relative Toxicity, Mustard Beetles” value [2]?
A: The value was 780.

Q: And the “LD 50 active compound + synergist” value [6]?
A: Its value is 0.00037 μg. per female fly.

Q: And the “Approx. Synergistic factor” value [6]?
A: The value was about 22.

Q: What about the “LD 50 active compound only” value [6] of the same compound?
A: The value was 0.0083 μg. per female fly.

Q: Which results are given for `CC(C)=C[C@@H]1[C@@H](C(=O)OCc2coc(Cc3ccccc3)c2)C1(C)C` [Bioresmethrin, 5-benzyl-3-furylmethyl (1R)--trans-chrysanthemate, reference compound]?
A: toxicity, times that of allethrin, to houseflies ([1]; relative to allethrin): about 24 times; toxicity, times that of allethrin, to mustard beetles ([2]; relative to allethrin): ~65 times; LD50 (American cockroach) ([7]; in vivo): 2.5 μg/insect; Approx. Synergistic factor [6]: ~9.4; LD50 ([5]; iv): 340 mg/kg; LD50 ([5]; po): > 8000 mg/kg

Q: For `CC/C=C\[C@@H]1[C@@H](C(=O)OCc2coc(Cc3ccccc3)c2)C1(C)C` [Compound A], which “Relative Toxicity, Houseflies” value [1] is on record?
A: The value was 1700.

Q: And the “Relative Toxicity, Mustard Beetles” value [2]?
A: The value was 2000.

Q: And the “LD 50 active compound + synergist” value [6]?
A: The value was 0.00033 μg. per female fly.

Q: And the “Approx. Synergistic factor” value [6]?
A: The value was about 13.

Q: And the “LD 50 active compound only” value [6]?
A: Its value is 0.0042 μg. per female fly.

Q: What about the “LD 50 active compound only” value (female Musca domestica) of the same compound?
A: Its value is 0.034 µg.

Q: And the “LD50 Active compound + piperonyl butoxide (1:5)” value (female Musca domestica)?
A: The value was 0.015 µg.

Q: What about the LD50 ([5]; iv) of the same compound?
A: The LD50 was 120 mg/kg.

Q: What about the LD50 ([5]; po) of the same compound?
A: The LD50 was 800 to 1000 mg/kg.

Q: With `CC1(C)C(C=C(Cl)Cl)C1C(=O)OCc1cccc(Oc2ccccc2)c1` (centres unmarked) [Compound P21H] as the compound, how does the “Relative Toxicity, Houseflies” value [1] read?
A: The value was 660.

Q: And the “Relative Toxicity, Mustard Beetles” value [2]?
A: Its value is 740.

Q: And the LD50 [8]?
A: Its LD50 is 0.022 μg/female.

Q: What about the “LD 50 active compound only” value (female Musca domestica) of the same compound?
A: The value was 0.031 µg.

Q: And the “LD50 Active compound + Tropital (1:5)” value (female Musca domestica; with Tropital (1:5))?
A: The value was 0.019 µg.

Q: And the “LD50 Active compound + piperonyl butoxide (1:5)” value (female Musca domestica)?
A: The value was 0.018 µg.

Q: Which “Relative Toxicity (American cockroach)” value [7] does the source give for `CC1(C)[C@H](C(=O)OCc2cccc(Oc3ccccc3)c2)[C@@H]1C=C(Cl)Cl` [Compound P29L] here?
A: The value was 2,100.

Q: What about the “Selectivity (ratio of toxicity to Ephestia compared to Venturia)” value [9] of the same compound?
A: Its value is 2.3.

Q: Which “Relative Toxicity, Houseflies” value [1] does the source give for `CC1(C)[C@H](C=C(Cl)Cl)[C@H]1C(=O)OCc1cccc(Oc2ccccc2)c1` [Compound P29M, 3-Phenoxybenzyl-(1R)--trans-2,2-dimethyl-3-(2,2-dichlorovinyl)cyclopropanecarboxylate] here?
A: Its value is 740.

Q: What about the “Relative Toxicity (American cockroach)” value [7] of the same compound?
A: The value was 800.

Q: And the “Selectivity (ratio of toxicity to Ephestia compared to Venturia)” value [9]?
A: Its value is 2.8.

Q: What does the source list for `CC1(C)[C@H](C(=O)OC(C#N)c2cccc(C(=O)c3ccccc3)c2)[C@@H]1C=C(Br)Br` (stereo partly drawn) [Compound P39E, (αRS)-cyano-3-benzoylbenzyl(1R)cis-2,2-dimethyl-3-(2,2-dibromovinyl)-cyclopropane carboxylate]?
A: Relative Toxicity, Houseflies [1]: 330; Relative Toxicity, Mustard Beetles [2]: 2200; inhibition at 100 µg/mL ([10]; 0.1 mg/ml): 0%; inhibition at 1000 µg/mL ([10]; 1 mg/ml): 90%; inhibition at 10000 µg/mL ([10]; 10 mg/ml): 100%; selectivity in words ([9]; Ephestia over Venturia): very marked and quite unexpected selectivity; Selectivity (ratio of toxicity to Ephestia compared to Venturia) [9]: 7.9

Q: Which LD50 [8] does the source give for `CC1(C)[C@H](C=C(F)F)[C@H]1C(=O)OCN1C(=O)C2=C(CCCC2)C1=O` [DP 870] here?
A: The LD50 was 0.09 μg/female.

Q: And the “LD50, plus piperonyl-butoxide” value ([8]; plus piperonyl butoxide (1:5 w/w))?
A: Its value is 0.04 μg/female.

Q: For `CC1(C)C(C=C(Br)Br)C1C(=O)OC(C#N)c1cccc(Oc2ccccc2)c1` [P29B (crystalline isomer), (αS)-cyano-3-phenoxybenzyl(1R)cis-2,2-dimethyl-3-(2,2-dibromovinyl)cyclopropane carboxylate], which “Relative Toxicity, Houseflies” value [1] is on record?
A: The value was 23000.

Q: And the “Relative Toxicity, Mustard Beetles” value [2]?
A: Its value is 14000.

Q: And the “Selectivity (ratio of toxicity to Ephestia compared to Venturia)” value [9]?
A: The value was 3.6.

Q: And the “LD50 Active compound (flies pretreated with synergist)” value [3]?
A: The value was 0.00023 µg.

Q: And the Approx. synergist factor [3]?
A: Its Approx. synergist factor is about 7.

Q: And the “LD 50 active compound only” value [3]?
A: The value was 0.0016 µg.
